From patent US10870678B2, “Chiral peptides” (ARCUATE THERAPEUTICS, INC., priority 2016, dated 2020)
Read-outs that look alike come from different tables or passages of the source.

System: HepG2 human liver cancer cell line
Assay: Functional Mitochondrial Toxicity Assay, XFe96 Seahorse (HepG2)
Format: cell-based
Procedure: The present Examples interrogate the two major energy producing pathways in the cell, mitochondrial respiration and glycolysis. HepG2 human liver cancer cell lines were dosed with test compounds and in real time the extracellular oxygen levels and pH were measured using the XFe96 flux analyser (Seahorse Biosciences). XFe Technology uses solid-state sensors to simultaneously measure both oxygen consumption rate (OCR) and extracellular acidification rate (ECAR) to determine effects on oxidative phosphorylation (OXPHOS) and glycolysis simultaneously. The cells were then subjected to sequential exposure to various inhibitors of mitochondrial functional to assess cellular metabolism.
A positive mitochondrial active compound is determined when there is a change in OCR or ECAR in the absence of cytotoxicity. Cytotoxicity was determined when both oxidative phosphorylation (OCR) and glycolysis (ECAR) were inhibited.
OCR is a measurement of oxygen content in extracellular media. Changes in OCR indicate effects on mitochondrial function, and can be bi-directional. A decrease is due to an inhibition of mitochondrial respiration, whilst an increase may indicate an uncoupler, in which respiration is not linked to energy production.
ECAR is the measurement of extracellular proton concentration (pH). An increase in signal means an increase in rate in number of pH ions (Thus decreasing pH value), and seen as an increase in glycolysis. Expressed as a fraction of basal control (rate prior to addition of compound).
Reverse capacity is the measured ability of cells to respond to an increase in energy demand, a reduction indicates mitochondrial dysfunction.
The Mitochondrial Stress Test is a series of sequential additions of compounds to the cells to assess a bioenergetics profile, and effects of test compounds on parameters such as proton leak and research capacity. This was used to assist in understanding potential mechanisms of mitochondrial toxicity. For example, it involves the addition of the follow compounds in this order:
Oligomycin is a known inhibitor of ATP synthase, and prevents the formation of ATP. This provides a measurement of the amount of oxygen consumption related to ATP production and ATP turnover. The addition of Oligomycin results in a decrease in OCR under normal conditions, and residual OCR is related to the natural proton leak.
Carbonyl cyanide 4-(trifluoromethoxy)phenylhydrazine (FCCP) is a protonphore, and is a known uncoupler of oxygen consumption from ATP production. This allows the maximum achievable transfer of electrons and oxygen consumption rate, and provides a measurement of reserve capacity.
Rotenone and antimycin A are known inhibitors of complex I and III of the electron transport chain, respectively. This inhibits electron transport completely, and any residual oxygen consumption is due to non-mitochondrial activity via oxygen requiring enzymes.

[1] = HepG2, read-out: Reserve Capacity AC50

Compound	Potential Mechanism (HepG2)	AC50 (HepG2, read-out: ECAR AC50)	AC50 (HepG2, read-out: OCR AC50)	AC50 [1]	Reserve Capacity MEC (HepG2)	Reserve Capacity ↑↓ (HepG2)	other results
(D-Arg)(L-Dmt)(L-Orn)(L-Phe)-NH2 [Peptide I-2]	No effect	> 100 µM	> 100 µM	> 100 µM			
(L-Phe)(L-Lys)(L-Phe)(D-Arg)-NH2 [Peptide I-29]	Other	> 100 µM	> 100 µM	4.17 µM	0.203 µM	↓	
(L-Phe)(L-Orn)(L-Tyr)(D-Orn)-NH2 [Peptide I-15]	Other	> 100 µM	> 100 µM	> 100 µM	64.7 µM	↑	
(D-Lys)(L-Leu)(L-Orn)(L-Leu)-NH2 [Peptide I-25]	No effect	> 100 µM	> 100 µM	> 100 µM			
(D-Phe)(D-Orn)(D-Tyr)(L-Arg)-NH2 [Peptide I-16]	Other	> 100 µM	> 100 µM	> 100 µM	84.5 µM	↑	
(D-Orn)(L-Tyr)(L-Orn)(L-Phe)-NH2 [Peptide I-5]	Other	> 100 µM	> 100 µM				Reserve Capacity MEC (HepG2, listed as I-5 (1)): 15.8 µM; Reserve Capacity ↑↓ (HepG2, listed as I-5 (1)): ↑; AC50 (HepG2, listed as I-5 (1), read-out: Reserve Capacity AC50): > 100 µM; Reserve Capacity MEC (HepG2, listed as I-5 (2)): <0.1 µM; Reserve Capacity ↑↓ (HepG2, listed as I-5 (2)): ↓; AC50 (HepG2, listed as I-5 (2), read-out: Reserve Capacity AC50): 0.954 µM
(L-Phe)(L-Orn)(L-Leu)(D-Orn)-NH2 [Peptide I-31]	No effect	> 100 µM	> 100 µM	> 100 µM			
(L-Phe)(L-Orn)(L-Tyr)(D-Arg)-NH2 [Peptide I-14]	No effect	> 100 µM	> 100 µM	> 100 µM			
(D-Arg)(L-Tyr)(L-Orn)(L-Phe)-NH2 [Peptide I-3]	Other	> 100 µM	> 100 µM	> 100 µM		↑	Reserve Capacity MEC (HepG2, listed as I-3 (1)): 48.5 µM; Reserve Capacity MEC (HepG2, listed as I-3 (2)): 85.3 µM
(D-Arg)(L-Leu)(L-Orn)(L-Leu)-NH2 [Peptide I-24]	Other	> 100 µM	> 100 µM	> 100 µM	33.8 µM	↑	
(D-Orn)((L-Dmt)(L-Orn)(L-Phe)-NH2 [Peptide I-4]	No effect	> 100 µM	> 100 µM	> 100 µM			
(D-Arg)(L-Dmt)(L-Lys)(L-Tyr)-NH2 [Peptide I-9]	No effect	> 100 µM	> 100 µM	> 100 µM			
(L-Phe)(L-Orn)(L-Phe)(D-Orn)-NH2 [Peptide I-33]	No effect	> 100 µM	> 100 µM	> 100 µM			
(D-Orn)(L-Phe)(L-Orn)(L-Phe)-NH2 [Peptide I-27]	No effect	> 100 µM	> 100 µM	> 100 µM			
(D-Lys)(L-Dmt)(L-Orn)(L-Phe)-NH2 [Peptide I-7]	No effect	> 100 µM	> 100 µM	> 100 µM			
(D-Phe)(D-Lys)(D-Leu)(L-Arg)-NH2 [Peptide I-34]	Other	> 100 µM	> 100 µM	0.957 µM	<0.1 µM	↓	
(D-Leu)(D-Orn)(D-Leu)(L-Orn)-NH2 [Peptide I-37]	Other	> 100 µM	> 100 µM	1.11 µM	<0.1 µM	↓	OCR MEC (HepG2): 143 µM; OCR ↑↓ (HepG2): ↓
(D-Orn)(L-Leu)(L-Orn)(L-Leu)-NH2 [Peptide I-26]	No effect	> 100 µM	> 100 µM	> 100 µM			
(L-Phe)(L-Lys)(L-Leu)(D-Arg)-NH2 [Peptide I-28]	Other	> 100 µM	> 100 µM	1.28 µM	<0.1 µM	↓	
(L-Phe)(L-Orn)(L-Leu)(D-Arg)-NH2 [Peptide I-30]	No effect	> 100 µM	> 100 µM	> 100 µM			
(D-Phe)(D-Orn)(D-Leu)(L-Arg)-NH2 [Peptide I-35]	Other	> 100 µM	> 100 µM	5.28 µM	<0.1 µM	↓	
(D-Arg)(L-Dmt)(L-Orn)(L-Tyr)-NH2 [Peptide I-10]	No effect	> 100 µM	> 100 µM	> 100 µM			
(D-Lys)(L-Dmt)(L-Lys)(L-Phe)-NH2 [Peptide I-6]	Other	> 100 µM	> 100 µM	> 100 µM	50.3 µM	↑	
(D-Phe)(D-Orn)(D-Leu)(L-Orn)-NH2 [Peptide I-36]	Other	> 100 µM	> 100 µM	6.45 µM	0.139 µM	↓	
(D-Arg)(L-Leu)(L-Lys)(L-Phe)-NH2 [Peptide I-21]	Other	> 100 µM	> 100 µM	> 100 µM	62.5 µM	↑	
(D-Lys)(L-Tyr)(L-Orn)(L-Phe)-NH2 [Peptide I-8]	Other	> 100 µM	> 100 µM	> 100 µM	79.7 µM	↑	
(D-Arg)(L-Phe)(L-Lys)(L-Phe)-NH2 [Peptide I-22]	No effect	> 100 µM	> 100 µM	> 100 µM	100 µM	↑	
(D-Phe)(D-Orn)(D-Phe)(L-Orn)-NH2 [Peptide I-38]	No effect	> 100 µM	> 100 µM	> 100 µM			
(L-Phe)(L-Orn)(L-Dmt)(D-Arg)-NH2 [Peptide I-12]	No effect	> 100 µM	> 100 µM	> 100 µM			
C=C(C)[C@H]1Cc2c(ccc3c2O[C@@H]2COc4cc(OC)c(OC)cc4[C@@H]2C3=O)O1 [Rotenone, reference compound]	ETC				<0.003 µM	↓	ECAR MEC (HepG2): 0.00325 µM; ECAR ↑↓ (HepG2): ↑; OCR MEC (HepG2): <0.003 µM; OCR ↑↓ (HepG2): ↓; AC50 (Homo sapiens, HepG2, read-out: ECAR AC50): 0.496 µM; AC50 (Homo sapiens, HepG2, read-out: OCR AC50): 0.0138 µM; AC50 (Homo sapiens, HepG2, read-out: Reserve Capacity AC50): 0.00349 µM
